Test results taken from the supplement of paper PMC10307832.

Key:
Assay in all cases: relative viability (nuclei count vs DMSO), 5 days (fraction); higher = more cells survive
[1] = compound: CC1=CC=C(C=C1)C(=O)CN2C3=C(CCCC3)SC2=N [Pifithrin_alpha] + CS(=O)(=O)N1CCN(Cc2cc3nc(-c4cccc5[nH]ncc45)nc(N4CCOCC4)c3s2)CC1 [Pictilisib] (partner 1 µM)
Procedure, shortened: (§1)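 Nuclei were stained with Hoechst during a one-step fixation (final 0.05% Triton X-100, 1% formaldehyde, 1 ug/ml Hoechst) carried out 5 days after dosing, then counted on 4× images. The cells, lung cancer lines in 1536-well plates, had been dosed by pin tool the day after seeding with one drug alone or a fixed anchor-drug dose plus five library-drug doses (not always all listed) in √10 steps. Relative viability is the nuclei count in treated wells divided by that in vehicle wells, and each value is the median of duplicate plates.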

[2] = compound: CC1=CC=C(C=C1)C(=O)CN2C3=C(CCCC3)SC2=N [Pifithrin_alpha] + CC(=O)c1c(C)c2cnc(Nc3ccc(N4CCNCC4)cn3)nc2n(C2CCCC2)c1=O [Palbociclib] (partner 0.5 µM)
Procedure, shortened: as §1

Axitinib + Olaparib = compound: CNC(=O)c1ccccc1Sc1ccc2c(/C=C/c3ccccn3)n[nH]c2c1 [Axitinib] + O=C(c1cc(Cc2n[nH]c(=O)c3ccccc23)ccc1F)N1CCN(C(=O)C2CC2)CC1 [Olaparib] (partner 8 µM)
Procedure, shortened: as §1

Axitinib + Lapatinib = compound: CNC(=O)c1ccccc1Sc1ccc2c(/C=C/c3ccccn3)n[nH]c2c1 [Axitinib] + CS(=O)(=O)CCNCc1ccc(-c2ccc3ncnc(Nc4ccc(OCc5cccc(F)c5)c(Cl)c4)c3c2)o1 [Lapatinib] (partner 2 µM)
Procedure, shortened: as §1

Row | Cell Line | relative viability ([1]; first compound 1 µM) | relative viability ([1]; first compound 3.162 µM) | relative viability ([1]; first compound 10 µM) | relative viability ([1]; first compound 31.62 µM) | relative viability ([1]; first compound 100 µM) | relative viability ([2]; first compound 3.162 µM) | relative viability ([2]; first compound 31.62 µM) | relative viability ([2]; first compound 100 µM) | relative viability (Axitinib + Olaparib; first compound 0.005 µM) | relative viability (Axitinib + Olaparib; first compound 0.05 µM) | relative viability (Axitinib + Olaparib; first compound 0.1581 µM) | relative viability (Axitinib + Olaparib; first compound 0.5 µM) | relative viability (Axitinib + Lapatinib; first compound 0.005 µM) | relative viability (Axitinib + Lapatinib; first compound 0.05 µM) | relative viability (Axitinib + Lapatinib; first compound 0.1581 µM) | relative viability (Axitinib + Lapatinib; first compound 0.5 µM) | relative viability ([2]; first compound 1 µM) | relative viability ([2]; first compound 10 µM) | relative viability (Axitinib + Olaparib; first compound 0.01581 µM) | relative viability (Axitinib + Lapatinib; first compound 0.01581 µM)
1 | PC-3 [JPC-3] | 0.547 | 0.757 | 0.629 | 0.569 | 0.597 | 0.519 | 0.455 | 0.458 | 1.16 | 1.19 | 1.12 | 1.44 | 0.483 | 0.453 | 0.445 | 0.447 | – | – | – | –
2 | HCC-366 | 0.105 | 0.106 | 0.136 | 0.136 | 0.112 | 0.289 | – | 0.258 | 0.362 | 0.422 | 0.304 | 0.37 | 0.99 | 1.09 | 1.03 | 1.16 | 0.33 | 0.28 | 0.33 | 0.961
3 | NCI-H2405 | – | 0.39 | 0.427 | 0.403 | 0.292 | 0.508 | 0.433 | 0.503 | 0.892 | 0.94 | 0.827 | 0.949 | 1.09 | 1.34 | 1.07 | 1.02 | – | 0.511 | 0.919 | 1.06
4 | LU99A | 0.35 | 0.311 | 0.325 | – | 0.305 | 0.445 | – | 0.453 | 0.272 | 0.273 | 0.286 | 0.304 | 0.879 | 0.885 | 1.04 | 1.04 | 0.39 | 0.387 | 0.287 | 0.987
5 | LCLC-97TM1 | – | 0.179 | 0.224 | – | 0.229 | 0.293 | – | 0.225 | 0.433 | 0.446 | 0.37 | 0.496 | 0.74 | 1.01 | 0.927 | 0.725 | – | 0.204 | 0.436 | 1.17
6 | A-427 | 0.722 | 0.629 | 0.666 | 0.522 | 0.657 | 0.529 | 0.447 | 0.454 | 0.778 | 0.803 | 0.753 | 1.01 | 1.1 | 1.08 | 1.06 | 1.06 | 0.5 | 0.497 | 0.843 | 1.01
7 | EMC-BAC-2 | 0.511 | 0.566 | 0.55 | 0.456 | 0.545 | 0.542 | 0.422 | 0.506 | 0.5 | 0.516 | 0.512 | 0.508 | 0.917 | 0.947 | 0.915 | 0.803 | 0.493 | 0.489 | 0.542 | 0.869
8 | NCI-H2228 | 0.516 | 0.352 | 0.434 | 0.294 | 0.303 | 0.75 | 0.453 | 0.853 | 0.636 | 0.713 | 0.466 | 0.91 | 1.28 | 1.09 | 1.29 | 1.39 | 0.833 | 0.659 | 0.706 | 0.959
9 | IA-LM | 0.369 | 0.298 | 0.312 | 0.344 | 0.291 | – | – | – | 1.07 | 0.821 | 0.808 | 0.832 | 0.83 | 0.781 | 0.747 | 0.788 | – | – | 0.855 | 0.884
10 | NCI-H838 | 0.343 | 0.357 | 0.399 | 0.293 | 0.314 | 0.189 | 0.188 | 0.183 | 0.869 | 0.806 | 0.756 | 0.783 | 1.29 | 1.11 | 1.01 | 1.03 | 0.192 | 0.203 | 0.712 | 0.853
11 | COR-L 105 | 0.324 | 0.377 | 0.415 | 0.33 | 0.458 | 0.42 | 0.357 | 0.406 | 0.805 | 0.647 | 0.962 | 0.797 | 0.355 | 0.328 | 0.381 | 0.38 | 0.382 | 0.412 | 0.721 | 0.357
12 | NCI-H358 | 0.276 | 0.346 | 0.368 | 0.333 | 0.317 | 0.151 | 0.115 | 0.119 | 0.741 | 0.6 | 0.594 | 0.682 | 0.46 | 0.437 | 0.374 | 0.469 | 0.134 | 0.137 | 0.567 | 0.401
13 | SK-MES-1 | 0.392 | 0.32 | 0.33 | 0.293 | 0.237 | 0.286 | 0.266 | 0.267 | 0.775 | 0.711 | 0.833 | 1.02 | 0.492 | 0.53 | 0.446 | 0.547 | 0.294 | 0.267 | 0.829 | 0.454
14 | LCLC-103H | 0.53 | 0.531 | 0.566 | 0.551 | 0.567 | 0.518 | 0.464 | 0.456 | 0.803 | 0.753 | 0.881 | 0.824 | – | – | – | – | 0.525 | 0.472 | 0.784 | –
15 | HARA | 0.335 | 0.275 | 0.4 | 0.234 | 0.251 | 0.266 | 0.265 | 0.226 | 1.02 | 0.835 | 0.95 | 0.921 | 0.63 | 0.718 | 0.621 | 0.602 | 0.219 | 0.26 | 0.88 | 0.593
16 | ABC-1 | 0.273 | 0.745 | 0.735 | 0.429 | 0.437 | 0.839 | 0.462 | 0.53 | 0.735 | 0.659 | 0.974 | 0.78 | 1.19 | 1.01 | 1.32 | 1.21 | – | 0.831 | – | 1.28
17 | NCI-H727 | 0.347 | 0.466 | 0.369 | 0.316 | 0.227 | 0.678 | 0.636 | 0.667 | 0.59 | 0.759 | 0.665 | 0.652 | 1.05 | 0.71 | 0.867 | 0.953 | 0.615 | 0.657 | 0.756 | 0.952
